{
  "source": "patent US7371822B2",
  "about": "“Human G-protein coupled receptor variant of HM74, HGPRBMY74” (Bristol-Myers Squibb Company, priority 2003, dated 2008)",
  "tested_on": "human kidney 293E cells stably transfected with Gαiq—5",
  "assay": "cells",
  "conditions": "293E cells with Gαiq—5 coding region only",
  "method": "The growth medium in the 6-well plate was replaced with antibiotic-free medium at 3 ml per well. DNA complexes were added at 320 μl per well and plates were returned to the incubator. […] 25 μl of this suspension was added to 30 ml of selective medium in a 15 cm tissue culture plate. Cells were maintained in selective medium for approximately two weeks. Five single clones were isolated and grown in 24-well, then 6-well, then T-75 tissue culture plates.\nThirty hours later cells were loaded with 100 μl loading dye. […] A stock solution of Probenecid (Sigma P8761) was prepared by dissolving 70 mg in 500 μl 1 M NaOH and then adding 500 μl of FIPR assay buffer. This was added to the loading solution at a final concentration of 700 μg/ml. After adding the loading dye, cells were returned to the incubator for one hour.\nAfter one hour loading, dye was removed from the wells by gentle aspiration and replaced with 120 μl of FLIPR assay buffer.\nData were analyzed and plotted using XLfit (IDBS).",
  "note": "Like-named read-outs stand apart in the source and are kept apart here.",
  "data": [
    {"molecule": "O=C(O)c1cccnc1", "note": "[nicotinic acid, Nicotinic acid]", "values": [
      {"measurement": "EC50", "setting": "Homo sapiens, read-out: calculated EC50, FIG. 5", "result": 0.833, "unit": "µM"},
      {"measurement": "EC50", "setting": "read-out: calculated EC50, FIG. 5", "result": 0.823, "unit": "µM"}
    ]}
  ]
}
